Reference: PubChem BioAssay (NCI)
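96-well plates; 48 h exposure; 5 concentrations. Endpoints by linear interpolation between flanking doses. Not reached: highest tested concentration assigned. TGI: total growth inhibition.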

Assays:
Assay in all cases: NCI tumour cell line growth inhibition, 48 h
NCI-H522 lung = tested on: NCI-H522 lung
SK-OV-3 ovarian = tested on: SK-OV-3 ovarian
RPMI-8226 leukemia = tested on: RPMI-8226 leukemia
CCRF-CEM leukemia = tested on: CCRF-CEM leukemia
UACC-257 melanoma = tested on: UACC-257 melanoma
SF-295 CNS = tested on: SF-295 CNS
NCI-H226 lung = tested on: NCI-H226 lung
RXF 393 renal = tested on: RXF 393 renal
HCC-2998 colon = tested on: HCC-2998 colon
M19-MEL melanoma = tested on: M19-MEL melanoma
OVCAR-8 ovarian = tested on: OVCAR-8 ovarian
XF 498 CNS = tested on: XF 498 CNS
SN12K1 renal = tested on: SN12K1 renal
DLD-1 colon = tested on: DLD-1 colon
HCT-116 colon = tested on: HCT-116 colon
NCI-H460 lung = tested on: NCI-H460 lung
HT29 colon = tested on: HT29 colon
UO-31 renal = tested on: UO-31 renal
SK-MEL-2 melanoma = tested on: SK-MEL-2 melanoma
U251 CNS = tested on: U251 CNS
MALME-3M melanoma = tested on: MALME-3M melanoma
CAKI-1 renal = tested on: CAKI-1 renal
KM20L2 colon = tested on: KM20L2 colon
HOP-62 NSCLC = tested on: HOP-62 NSCLC
NCI-H23 lung = tested on: NCI-H23 lung
MCF7 breast = tested on: MCF7 breast
KM12 colon = tested on: KM12 colon
SW-620 colon = tested on: SW-620 colon
DMS 273 small cell lung = tested on: DMS 273 small cell lung
SNB-19 CNS = tested on: SNB-19 CNS
OVCAR-3 ovarian = tested on: OVCAR-3 ovarian
HOP-92 NSCLC = tested on: HOP-92 NSCLC
EKVX NSCLC = tested on: EKVX NSCLC
UACC-62 melanoma = tested on: UACC-62 melanoma
OVCAR-5 ovarian = tested on: OVCAR-5 ovarian
A498 renal = tested on: A498 renal
NCI/ADR-RES ovarian = tested on: NCI/ADR-RES ovarian
K-562 leukemia = tested on: K-562 leukemia
HCT-15 colon = tested on: HCT-15 colon
HOP-18 NSCLC = tested on: HOP-18 NSCLC
MOLT-4 leukemia = tested on: MOLT-4 leukemia
SF-268 CNS = tested on: SF-268 CNS
P388/ADR leukemia = tested on: P388/ADR leukemia
P388 leukemia = tested on: P388 leukemia
HL-60(TB) leukemia = tested on: HL-60(TB) leukemia
LOX IMVI melanoma = tested on: LOX IMVI melanoma
COLO 205 colon = tested on: COLO 205 colon
A549 NSCLC = tested on: A549 NSCLC
SF-539 CNS = tested on: SF-539 CNS
IGROV1 ovarian = tested on: IGROV1 ovarian
SK-MEL-28 melanoma = tested on: SK-MEL-28 melanoma
SK-MEL-5 melanoma = tested on: SK-MEL-5 melanoma
OVCAR-4 ovarian = tested on: OVCAR-4 ovarian
DU-145 prostate = tested on: DU-145 prostate
LXFL 529 NSCLC = tested on: LXFL 529 NSCLC
DMS 114 small cell lung = tested on: DMS 114 small cell lung
MDA-MB-231 breast = tested on: MDA-MB-231 breast
786-0 renal = tested on: 786-0 renal
RXF-631 renal = tested on: RXF-631 renal
PC-3 prostate = tested on: PC-3 prostate
SNB-75 CNS = tested on: SNB-75 CNS
SN12C renal = tested on: SN12C renal
BT-549 breast = tested on: BT-549 breast
M14 melanoma = tested on: M14 melanoma
SNB-78 CNS = tested on: SNB-78 CNS
TK-10 renal = tested on: TK-10 renal

COc1cc(C2c3cc4c(cc3[C@@H](Nc3ccc5c(c3)OCO5)C3COC(=O)[C@H]23)OCO4)cc(OC)c1O (stereo partly drawn)
TGI (NCI-H522 lung): 4.49 µM
TGI (SK-OV-3 ovarian): 16.3 µM
TGI (RPMI-8226 leukemia): 8.59 µM
TGI (CCRF-CEM leukemia): 5.37 µM
TGI (UACC-257 melanoma): 8.38 µM
TGI (SF-295 CNS): 5.3 µM
TGI (NCI-H226 lung): 2.06 µM
TGI (RXF 393 renal): 6.15 µM
TGI (HCC-2998 colon): 3.42 µM
TGI (M19-MEL melanoma): > 100 µM
TGI (OVCAR-8 ovarian): > 20.5 µM
TGI (XF 498 CNS): 16.7 µM
TGI (SN12K1 renal): 5.82 µM
TGI (DLD-1 colon): 5.45 µM
TGI (HCT-116 colon): 15.7 µM
TGI (NCI-H460 lung): 1.57 µM
TGI (HT29 colon): 6.07 µM
TGI (UO-31 renal): 9.7 µM
TGI (SK-MEL-2 melanoma): 5.96 µM
TGI (U251 CNS): 1.74 µM
TGI (MALME-3M melanoma): 10.1 µM
TGI (CAKI-1 renal): 1.43 µM
TGI (KM20L2 colon): > 24.3 µM
TGI (HOP-62 NSCLC): 0.715 µM
TGI (NCI-H23 lung): 4.07 µM
TGI (MCF7 breast): 10.1 µM
TGI (KM12 colon): 6.91 µM
TGI (SW-620 colon): > 37.6 µM
TGI (DMS 273 small cell lung): 1.4 µM
TGI (SNB-19 CNS): 30.1 µM
TGI (OVCAR-3 ovarian): 22.2 µM
TGI (HOP-92 NSCLC): 8.37 µM
TGI (EKVX NSCLC): 16.3 µM
TGI (UACC-62 melanoma): 5.35 µM
TGI (OVCAR-5 ovarian): > 59.4 µM
TGI (A498 renal): 1.84 µM
TGI (NCI/ADR-RES ovarian): 41.6 µM
TGI (K-562 leukemia): 9.74 µM
TGI (HCT-15 colon): 2.15 µM
TGI (HOP-18 NSCLC): 11 µM
TGI (MOLT-4 leukemia): 0.236 µM
TGI (SF-268 CNS): 30 µM
TGI (P388/ADR leukemia): 0.71 µM
TGI (P388 leukemia): 0.393 µM
TGI (HL-60(TB) leukemia): 0.977 µM
TGI (LOX IMVI melanoma): 3.4 µM
TGI (COLO 205 colon): 7.41 µM
TGI (A549 NSCLC): 2.56 µM
TGI (SF-539 CNS): 2.41 µM
TGI (IGROV1 ovarian): 35 µM
TGI (SK-MEL-28 melanoma): > 95.3 µM
TGI (SK-MEL-5 melanoma): 2.64 µM

COc1cc(C2c3cc4c(cc3[C@@H](Nc3ccc5c(c3)OCCO5)C3COC(=O)[C@H]23)OCO4)cc(OC)c1O (stereo partly drawn)
TGI (NCI-H522 lung): 5.43 µM
TGI (OVCAR-4 ovarian): 29.3 µM
TGI (SK-OV-3 ovarian): 8.7 µM
TGI (RPMI-8226 leukemia): 8.42 µM
TGI (CCRF-CEM leukemia): 2.28 µM
TGI (UACC-257 melanoma): > 32.3 µM
TGI (DU-145 prostate): > 100 µM
TGI (LXFL 529 NSCLC): > 100 µM
TGI (SF-295 CNS): 4.25 µM
TGI (DMS 114 small cell lung): 3.42 µM
TGI (NCI-H226 lung): 1.94 µM
TGI (MDA-MB-231 breast): > 100 µM
TGI (786-0 renal): 3.11 µM
TGI (RXF 393 renal): 4.64 µM
TGI (HCC-2998 colon): 3.65 µM
TGI (M19-MEL melanoma): > 35.9 µM
TGI (OVCAR-8 ovarian): 25.6 µM
TGI (RXF-631 renal): 3.51 µM
TGI (XF 498 CNS): 5.89 µM
TGI (SN12K1 renal): 9.19 µM
TGI (DLD-1 colon): 5.17 µM
TGI (HCT-116 colon): 8 µM
TGI (NCI-H460 lung): 2.23 µM
TGI (HT29 colon): 5.96 µM
TGI (PC-3 prostate): > 100 µM
TGI (UO-31 renal): 12.9 µM
TGI (SK-MEL-2 melanoma): 12 µM
TGI (SNB-75 CNS): 5.59 µM
TGI (U251 CNS): 8.26 µM
TGI (MALME-3M melanoma): 26.4 µM
TGI (CAKI-1 renal): 2.42 µM
TGI (KM20L2 colon): 9.05 µM
TGI (SN12C renal): 10.2 µM
TGI (HOP-62 NSCLC): 1.31 µM
TGI (NCI-H23 lung): 2.79 µM
TGI (MCF7 breast): > 100 µM
TGI (BT-549 breast): 16.4 µM
TGI (KM12 colon): 10.9 µM
TGI (SW-620 colon): > 79.1 µM
TGI (DMS 273 small cell lung): 1.87 µM
TGI (SNB-19 CNS): 66.6 µM
TGI (OVCAR-3 ovarian): 7.1 µM
TGI (HOP-92 NSCLC): 4.64 µM
TGI (EKVX NSCLC): 17 µM
TGI (UACC-62 melanoma): 7.19 µM
TGI (OVCAR-5 ovarian): 16.6 µM
TGI (A498 renal): 1.42 µM
TGI (NCI/ADR-RES ovarian): > 100 µM
TGI (M14 melanoma): 5.08 µM
TGI (SNB-78 CNS): > 34.2 µM
TGI (K-562 leukemia): 16.4 µM
TGI (HCT-15 colon): 7.23 µM
TGI (HOP-18 NSCLC): > 100 µM
TGI (MOLT-4 leukemia): 1.02 µM
TGI (SF-268 CNS): 23.1 µM
TGI (P388/ADR leukemia): 1.25 µM
TGI (P388 leukemia): 1.26 µM
TGI (HL-60(TB) leukemia): 0.241 µM
TGI (LOX IMVI melanoma): 22.4 µM
TGI (COLO 205 colon): 4.43 µM
TGI (A549 NSCLC): 7.15 µM
TGI (SF-539 CNS): 5.07 µM
TGI (IGROV1 ovarian): 16.6 µM
TGI (SK-MEL-28 melanoma): > 47.6 µM
TGI (SK-MEL-5 melanoma): 1.75 µM
TGI (TK-10 renal): 11.6 µM
